Like-named read-outs stand apart in the source and are kept apart here.
Key:
[1] = test system: MDA-MB-231 cell migration; test: Boyden chamber migration assay; type: cell-based, human; conditions: 24 h; for reduction of cell migration vs vehicle control: higher concentrations (DET 4 μM, DETD-35 2.5 μM, PTX 4 μM); for suppression of cell migration vs vehicle control: lower concentrations (DET 2.5 μM, DETD-35 1.25 μM, PTX 2.5 μM)
Method: (§1) To test the anti-migratory and anti-invasive effect of DET. DETD-35 and PTX. Boyden chambers assay was carried out. The lower well of the chamber (6.5 mm diameter, […]; Costar. Cambridge, Mass., USA) was added 10% fetal bovine serum (FBS) as a chemoattractant and filled with DMEM culture medium containing vehicle (DMSO, 0.05%), DET (2.5 and 4 μM). DETD-35 (1.25 and 2.5 μM), or PTX (2.5 and 4 μM). MDA-MB-231 cells were placed into the upper chamber (5×10^4 cells per insert) with the medium containing 0.1% FBS. After 24 h incubation at 37° C. in a 5% CO2 atmosphere, non-migrating cells were scraped from the upper surface of the membrane using a cotton swab, and the migrated cells remaining in the well were fixed and stained with DAPI solution (4,6-diamidino-2-phenylindole, 1 μg/ml). The migrating cells were counted in three fields at 20× original magnifications by inverted fluorescence microscopy. To test the anti-invasive effect of the compounds, 8-μm filters were pre-coating with Matrigel (30 μg per filter) and incubated at 37° C. for 2 h, then followed the protocol of migration assay descried about.

A2058 (BRAF mutation) = test: MTT cell viability assay, A2058 melanoma; type: cell-based, human
Summary of the method: (§2)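 Cells (2×10^3 to 1×10^4/well) seeded overnight, then exposed to compounds for 24 h to 72 h. Growth read by MTT colorimetry at OD570. Viability expressed as % of vehicle (0.5% DMSO) control.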

[2] = test system: MCF-7 (ER+, Her2−) human breast cancer cells; test: MTT cell viability assay, MCF-7 cells; type: cell-based
Summary of the method: (§3)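 Cells were seeded at 2×10^3 to 1×10^4 per well overnight, then exposed to compounds for 24 h to 72 h. Viability was read by MTT at OD570 as a percentage of the 0.5% DMSO vehicle control.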

MDA-MB-231 cells = test: Combination with gluthathione biosynthesis blockers (BSO, sulfasalazine), MTT; conditions: for cell viability after pretreatment with BSO or sulfasalazine: 30 h pretreatment, then DET 12 μM or DETD-35 3 μM for 24 h; for combination effect with BSO: BSO at 0.5 μM, 3 μM, and above; for combination effect with sulfasalazine: sulfasalazine at 25 μM, 62 μM, and above
Method: Briefly, cells (5×10^3 cells/well) were seeded in 96-well plates and treated with BSO at concentrations 100 μM, 45 μM, 18 μM, 7.2 μM, 2.8 μM, 1.15 μM, 461 nM, 184 nM, 74 nM and 29 nM, and sulfasalazine at concentrations 62.75 μM, 25.10 μM, 10 μM, 4 μM, 1.6 μM, 642 nM, 257 nM, 102 nM, 41 nM and 16.4 nM for 30 h, and then 12 μM DET or 3 μM DETD-35 were added in the cultural medium to treat the cells for another 24 h. Cell proliferation was measured by MIT assay.

[3] = test system: M10 normal mammary epithelial cells; test: MTT cell viability assay, M10 normal cells; type: cell-based, human; conditions: 24 h; for IC50: Homo sapiens, Epithelial cell
Summary of the method: as §3

HTB-68 (NRAS mutation) = test: MTT cell viability assay, HTB-68 melanoma; type: cell-based, human; conditions: 24 h
Summary of the method: as §2

MDA-MB-231 cell invasion = test: Boyden chamber (Matrigel) invasion assay; type: cell-based, human; conditions: 24 h
Method: as §1

[4] = test system: HCT-116 colon cancer cell line; test: MTT cell viability assay, HCT-116; type: cell-based; conditions: Homo sapiens, 24 h
Method: (§4) Normal or cancer cells (2×10^3 to 1×10^4 cells/well) were seeded in 96-well plate for overnight and treated with different compounds for 24 h to 72 h. Cells growth were determined by MTT-based colorimetric assays according to. Viability of the test cells treated with vehicle (0.5% DMSO) only was defined as 100% viable. Survival of cells after treatment with DETDs was calculated using the following formula: viable cell number (%)=OD570 (treated cell culture)/OD570 (vehicle control)×100.
(§5) Based on toxicity results of DET and DETDs on different breast cancer and melanoma cell lines, we selected DETD-6, -32, -35 and -39, under the consideration of structure activity relationship for evaluating their suppression effect against other cancer types of cell line with indicated tumor origin in Table 5. […] The cells were treated with compounds for 24 h and then subjected to MTT assays.

[5] = test system: MDA-MB-231 (ER−, PR−, Her2−) human breast cancer cells; test: MTT cell viability assay, MDA-MB-231 cells; type: cell-based; conditions: for IC50: Homo sapiens
Summary of the method: as §3

[6] = test system: RAW264.7 (normal macrophage); test: MTT cell viability assay, RAW264.7 macrophages; type: cell-based, mouse; conditions: for IC50: Mus musculus, RAW264.7, 24 h
Summary of the method: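 RAW264.7 macrophages (2×10^5 cells/well) pretreated with compounds 1 h, then incubated 24 h with or without 100 ng/μL LPS. Viability by MTT colorimetric assay run in parallel with Griess nitrite measurement.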

PC3 (Prostate) = test: MTT cell viability assay, PC3; type: cell-based; conditions: 24 h
Method: as §4, §5

MDA-MB-231 cell motility = test: Time-lapse microscope analysis of cell motility; type: cell-based, human; conditions: 12 h, control 186
Method: A 12 well cell culture plate was coated with 25 μg/mL fibronectin for 1 h and then seeded with 5×10^4 MDA-MB-231 cells in DMEM containing 10% serum. Twelve hours after seeding, time-lapse microscopy experiments were performed on an Inverted Confocal Microscope (LSM 510 META) equipped with an environmental chamber with phase-contrast optics (images taken every 30 min). Using the object-tracking application of Metamorph software (Molecular Devices), an average of 12 subsequent cell centroid displacements/30 min between two consecutive images were evaluated as cell velocities of migration. In total, cell trajectories were recorded for 24 h. These assays were made in treatments with vehicle (DMSO, 0.05%), DET (2.5, 4 and 10 μM), and DETD-35 (1.25, 2.5, 4 μM) added at the beginning of the time-lapse imaging/video taping.

[7] = test system: DMBA/TPA-induced skin papillomas accelerated by PLX4032; conditions: DMBA/TPA + PLX4032 20 mg/kg, with DET or DETD-35 10 mg/kg i.p. twice per week
Method: Dorsal skin of six weeks old female FVB/N mice were shaved and treated with topical application of DMBA (25 μg in 100 μL acetone). One week after DMBA treatment, the same skin area were treated topically twice weekly with 12-O-tetradecanoylphorbol-13-acetate (TPA) (4 μg in 100 μL acetone). The area was regularly shaved and tumor formation was assessed twice weekly, and tumors were defined as raised lesions of a minimum diameter of 1 mm.

[8] = MCF7, 24 h, read-out: IC50 on cell viability, MCF-7 (ER+, Her2−)
[9] = MCF7, Table 5, 24 h, read-out: IC50 viability MCF-7 (Breast)
[10] = MDA-MB-231, 24 h, read-out: IC50 on cell viability, MDA-MB-231 (ER−, PR−, Her2−)
[11] = MDA-MB-231, Table 5, 24 h, read-out: IC50 viability MDA-MB-231 (Breast)

C=C(C)C(=O)O[C@H]1CC2=C[C@@H](C/C(C)=C/[C@H]3OC(=O)C(=C)[C@H]13)OC2=O [DET, deoxyelephantopin, reference compound]
reduction of cell migration vs vehicle control [1]: 77% | suppression of cell migration vs vehicle control [1]: 16% | IC50 (A2058 (BRAF mutation); 24 h): > 10 µM | IC50 (A2058 (BRAF mutation); Homo sapiens, A2058, 24 h): > 10 µM | IC50 [2, 8]: 5 µM | IC50 [2, 9]: 5 µM | cell viability after pretreatment with BSO or sulfasalazine (MDA-MB-231 cells): 1% or undetectable | combination effect with BSO (MDA-MB-231 cells): synergistic effects | cell viability, compound alone (MDA-MB-231 cells; DET 12 μM, DETD-35 3 μM, 24 h): around 70% | combination effect with sulfasalazine (MDA-MB-231 cells): synergistic effects | IC50 [3]: > 7.5 µM | IC50 (HTB-68 (NRAS mutation)): > 10 µM | IC50 (HTB-68 (NRAS mutation); Homo sapiens): > 10 µM | inhibition of cell invasion (MDA-MB-231 cell invasion; higher concentrations (DET 4 μM, DETD-35 2.5 μM, PTX 4 μM)): 76% | inhibition of cell invasion (MDA-MB-231 cell invasion; lower concentrations (DET 2.5 μM, DETD-35 1.25 μM, PTX 2.5 μM)): 57% | IC50 [4]: 0.28 µM | IC50 [5, 10]: 14 µM | IC50 [5, 11]: 14 µM | IC50 [6]: > 10 µM | IC50 (PC3 (Prostate)): 12.8 µM | migration distance (MDA-MB-231 cell motility; 2.5 μM): 144 μm | migration distance (MDA-MB-231 cell motility; 4 μM): 15 μm | migration distance (MDA-MB-231 cell motility; 10 μM): 9 μm | papillomas size in average [7]: 26.3 mm^3 | total papillomas number [7]: 11.7

C=C1C(=O)O[C@H]2CC3=C[C@@H](C/C(C)=C/[C@@H](OC(=O)Cc4cccc5ccccc45)[C@H]12)OC3=O [DETD-35]
reduction of cell migration vs vehicle control [1]: 84% | suppression of cell migration vs vehicle control [1]: 10% | IC50 (A2058 (BRAF mutation); Homo sapiens, A2058, 24 h): 3.1 µM | IC50 [2, 8]: 3.2 µM | IC50 [2, 9]: 3.9 µM | cell viability after pretreatment with BSO or sulfasalazine (MDA-MB-231 cells): 1% or undetectable | combination effect with BSO (MDA-MB-231 cells): synergistic effects | viability at 3 µM (MDA-MB-231 cells; Homo sapiens, MDA-MB-231, 24 h, read-out: cell viability, compound alone): ~90% | combination effect with sulfasalazine (MDA-MB-231 cells): synergistic effects | IC50 on cell viability, M10 (normal) [3]: no detected toxicity | IC50 [3]: > 7.5 µM | IC50 (HTB-68 (NRAS mutation); Homo sapiens): 3.9 µM | inhibition at 2.5 µM (MDA-MB-231 cell invasion; Homo sapiens, MDA-MB-231, higher concentrations (DET 4 μM, DETD-35 2.5 μM, PTX 4 μM)): 80% | inhibition at 1.25 µM (MDA-MB-231 cell invasion; Homo sapiens, MDA-MB-231, lower concentrations (DET 2.5 μM, DETD-35 1.25 μM, PTX 2.5 μM)): 64.6% | IC50 [4]: 0.14 µM | IC60 on MDA-MB-231 cells ([5]; 24 h): 3.32 µM | IC50 [5, 10]: 3.5 µM | IC50 [5, 11]: 3.5 µM | IC50 on cell viability, RAW264.7 (normal macrophage) ([6]; 24 h): no detected toxicity | IC50 [6]: > 10 µM | IC50 (PC3 (Prostate)): 5.5 µM | migration distance (MDA-MB-231 cell motility; 1.25 μM): 70 μm | migration distance (MDA-MB-231 cell motility; 2.5 μM): 23 μm | migration distance (MDA-MB-231 cell motility; 4 μM): 3 μm | papillomas size in average [7]: 8.9 mm^3 | total papillomas number [7]: 4.8

Reference: patent US10238631B2, “Sesquiterpene derivatives and their use in inflammation or cancer treatment” (Academia Sinica, priority 2014, dated 2019)
